Our source for the MIC values is patent US12415819B2, “Cu- and Ni-catalyzed decarboxylative borylation reactions” (The Scripps Research Institute, priority 2017, dated 2025).

In brackets after ≈: the same amount, converted by molar mass. A value given as a limit tells only on which side of the number the result lay.

Common to all, as to test: Antibiotic susceptibility, broth microdilution
What all share (type): cell-based

Assay [1] concerns Enterococcus faecalis (Van B, ATCC 51299). Particulars: growth observed at 20 h, unit assumed. As to the method: (§1) Antibiotic susceptibilities were determined using the Clinical and Laboratory Standards Institute broth microdilution method (63). Briefly, antibiotics were prepared as 2-fold dilutions in 96-well plates containing cation-adjusted Mueller-Hinton broth (S. aureus strains) or brain-heart infusion broth (Enterococcus strains). Stock solutions of antibiotics were made in dimethyl sulfoxide (DMSO). […]

Assay [2] relates to Staphylococcus aureus (ATCC 25923). Particulars: growth observed at 20 h; unit assumed. As to the method: as §1
Assay [3] relates to Enterococcus faecium (Van A, ATCC BAA-2317). The settings on record: growth observed at 20 h; unit assumed. As to the method: as §1
The test system of assay [4] is Staphylococcus aureus (methicillin resistant, ATCC 43300). Particulars: MRSA; growth observed at 20 h; unit assumed. As to the method: as §1
Assay [5] deals with Enterococcus faecalis (VanA, BM4166). Particulars: growth observed at 20 h, unit assumed. As to the method:
as §1

Take `CN[C@H](CC(C)C)C(=O)N[C@H]1C(=O)N[C@@H](CC(N)=O)C(=O)N[C@H]2C(=O)N[C@H]3C(=O)N[C@H](C(=O)N[C@H](C(=O)O)c4cc(O)cc(O)c4-c4cc3ccc4O)[C@H](O)c3ccc(c(Cl)c3)Oc3cc2cc(c3O[C@@H]2O[C@H](CO)[C@@H](O)[C@H](O)[C@H]2O[C@H]2C[C@](C)(N)[C@H](O)[C@H](C)O2)Oc2ccc(cc2Cl)[C@H]1O` [vancomycin]: the MIC in assay [1] is 16 µg/mL (≈ 11 µM); in assay [2] it was 0.5 µg/mL (≈ 0.345 µM); in assay [3], over 64 µg/mL; in assay [4], 0.5 µg/mL (≈ 0.345 µM); in assay [5] it was over 64 µg/mL.
`CN[C@@H](CC(C)C)C(=O)N[C@H]1C(=O)N[C@@H](CC(N)=O)C(=O)N[C@H]2CN[C@H]3C(=O)N[C@H](C(=O)N[C@@H](C(=O)O)c4cc(OC)cc(OC)c4-c4cc3ccc4OC)[C@H](O)c3ccc(c(Cl)c3)Oc3cc2cc(c3OC)Oc2ccc(cc2Cl)[C@H]1O` (atropisomer, axis not shown) [Compound 43]: the MIC in assay [1] was 8 µg/mL (≈ 6.74 µM); in assay [2] it was 2 µg/mL (≈ 1.69 µM); in assay [3], over 64 µg/mL; in assay [4], 2 µg/mL (≈ 1.69 µM); in assay [5] it was over 64 µg/mL.
Consider `CN[C@H](CC(C)C)C(=O)N[C@H]1C(=O)N[C@@H](CC(N)=O)C(=O)N[C@H]2C(=O)N[C@H]3C(=O)N[C@H](C(=O)N[C@H](C(=O)O)c4cc(O)cc(O)c4-c4cc3ccc4O)[C@H](O)c3ccc(c(Cl)c3)Oc3cc2cc(c3O)Oc2ccc(cc2Cl)[C@H]1O` [vancomycin aglycon], for which the MIC in assay [1] is 32 µg/mL (≈ 28 µM); in assay [2], 1 µg/mL (≈ 0.874 µM); in assay [3], over 64 µg/mL; in assay [4] it was 1 µg/mL (≈ 0.874 µM); in assay [5], over 64 µg/mL.
